Experimental data as given in patent US10577371B2, “Small molecule histone methyltransferase SUV39H1 inhibitor and uses thereof” (Augusta University Research Institute, Inc., priority 2017, dated 2020).

Legend:
[1] = system: Fas in SW620 and LS411N cells; assay: Fas protein level on tumor cell surface by flow cytometry; assay type: cell-based, human; conditions: 3 days, 25 and 250 nM
Description: SW620 and LS411N cells were cultured in the presence of F5446 for 3 days. Fas protein levels were analyzed by flow cytometry (FIG. 12A-12B).

[2] = system: H3K9me3 at the FAS promoter region in SW620 and LS411N cells; assay: ChIP of H3K9me3 at the FAS promoter region in colon carcinoma cells; assay type: cell-based, human; conditions: 25 and 250 nM for 2 days
Description: SW620 and LS411N cells were treated with F5446 at 25, and 250 nM for 2 days and analyzed by ChIP using H3K9me3-specific antibody. The H3K9me3 antibody-immunoprecipitated DNA was amplified by PCR with FAS promoter DNA-specific primers and normalized to input genomic DNA.

[3] = system: CD8+ CTLs from CT26 tumor tissues; assay: H3K9me3 ChIP and qPCR in tumor-infiltrating CD8+ CTLs of CT26 tumor bearing mice; assay type: in vivo; conditions: CD8+ CTLs from CT26 tumors, F5446-treated mice
Description: CD8^+ CTLs were isolated from tumor tissues of the control and the F5446-treated groups of CT26 tumor bearing mice (from Example 13). ChIP analysis of H3K9me3 level in the promoter regions of GZMB, PRF1, FASLG and IFNG was performed. Further a qPCR analysis was performed to determine the expression levels of all four promoter regions.

[4] = system: CD3+ T cells from spleens of C57BL/6 mice; assay: H3K9me3 ChIP and effector expression in activated CD3+ T cells; assay type: cell-based; conditions: activated mouse CD3+ T cells
Description: CD3^+ T cells were purified from spleens of C57BL/6 mice. The cells were stimulated in anti-CD3/CD28-coated plates for 2 days in the absence or presence of F5446 (50 nM). The resting, stimulated and treated T cells were then analyzed by ChIP (Chromatin Immunoprecipitation) with anti-H3K9me3 antibody and gene-specific PCR primers.

[5] = system: MC38 and CT26 colon carcinoma tumors; assay: Colon carcinoma growth in vivo, MC38 in C57BL/6 and CT26 in BALB/c mice; conditions: F5446 10 mg/kg
Description: Two different tumor cells were injected into two different strains of mice. MC38 cells (1.5×10^5 cells/mouse) were injected to thirty C57BL/6 mice subcutaneously. CT26 cells (2×10^5 cells/mouse) were injected to thirty BALB/c mice subcutaneously. Twenty mice from each strain with relatively similar sizes of tumors were randomized into four groups at day 8 after tumor cell injection. The four groups of tumor-bearing mice were treated with IgG/solvent (control), […] (10 mg/kg), anti-PD-1 mAb ([…]), and […]+anti-PD-1 mAb, respectively, every two days for 14 days.

SW620 and LS411N cells [6] = assay: Sensitisation of colon carcinoma cells to FasL-induced apoptosis; assay type: cell-based, human; conditions: F5446 at sublethal dose plus FasL, 3 days
Description: SW620 and LS411N cells were cultured in the presence of F5446 and FasL, either alone or in combination, for 3 days. Cells were stained with PI and Annexin V and analyzed for apoptosis.
Apoptotic cell death was calculated as the difference between the percentage of PI^+ Annexin V^+ cells in the presence of F5446, FasL, or both and the percentage of PI^+ Annexin V+ cells in the absence of F5446 or FasL.

[7] = target: T1, recombinant human SUV39H1 (Homo sapiens, UniProt O43463); assay: HMTase EC50 assay with recombinant human SUV39H1 (Reaction Biology Corp.); assay type: biochemical; conditions: 10-dose, 3-fold serial dilutions; S-(methyl-3H) Adenosyl-L-Methionine; H3 peptide (N1-21); read-out: EC50 against recombinant human SUV39H1 in vitro
T1 construct: purchased Reaction Biology Corp. (Malvern Pa.)
T1 sequence (O43463 1-412): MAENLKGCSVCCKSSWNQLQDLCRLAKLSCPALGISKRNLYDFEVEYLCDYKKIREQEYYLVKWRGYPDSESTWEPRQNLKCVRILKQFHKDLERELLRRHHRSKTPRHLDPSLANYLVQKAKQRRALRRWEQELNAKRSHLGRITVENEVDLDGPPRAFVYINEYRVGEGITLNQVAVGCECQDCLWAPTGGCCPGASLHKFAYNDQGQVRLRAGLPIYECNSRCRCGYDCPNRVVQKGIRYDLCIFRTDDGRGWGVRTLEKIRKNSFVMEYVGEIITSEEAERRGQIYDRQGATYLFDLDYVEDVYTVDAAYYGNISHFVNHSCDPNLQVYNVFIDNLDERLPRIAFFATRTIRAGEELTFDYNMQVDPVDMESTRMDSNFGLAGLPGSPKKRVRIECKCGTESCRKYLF
Description: F5446 was sent to Reaction Biology Corp. (Malvern Pa.) to validate its inhibitory activity and to determine its EC50 for SUV39H1. F5446 was assayed in a 10-dose EC50 mode with 3-fold serial dilutions using recombinant human SUV39H1 protein as the methyltransferase, S-(methyl-3H) Adenosyl-L-Methionine as the substrate, and H3 peptide (N1-21) as the template in the presence of indicated doses of F5446. The EC50 was calculated with Prizm Program.

[8] = Toxicity of F5446 in mice: survival and serum liver enzyme profile; assay type: in vivo
Description: F5446 was injected into mice at a dose of 10 mg/kg body weight every 2 days for 6 days. Mouse survival was recorded. Serum was collected from the mice and analyzed for liver enzyme profiles at the University of Georgia Veterinary Diagnostic Laboratories.

SW620 and LS411N cells [9] = assay: Apoptosis of human colon carcinoma cells, PI/annexin V flow cytometry; assay type: cell-based; conditions: 0.01, 0.05, 0.25 and 1 μM for 2 days
Description: SW620 and LS411N cells were cultured in the presence of F5446 at doses of 0.01, 0.05, 0.25, and 1 μM for 2 days. Cells were stained with propidium iodide (“PI”) and annexin V and analyzed for apoptosis by flow cytometry.
Apoptotic cell death was calculated as the difference between the percentage of PI^+ Annexin V^+ cells in the presence of F5446 and the percentage of PI^+ Annexin V^+ cells in the absence of F5446.

AB1-HA tumor model = conditions: CTX treatment at Day 9; cited from earlier work
[10] = background statement; cited from earlier work
[11] = MC38/C57BL/6 and CT26/BALB/c, anti-PD-1 mAb 200 mg/mouse, every two days for 14 days
[12] = mouse serum, 10 mg/kg every 2 days for 6 days

In the case of COC(=O)c1cc2c(n1S(=O)(=O)c1ccc(Cl)cc1)C(=O)C(=O)c1[nH]cc(C(=O)OCc3ccccc3)c1-2 [F5446, 1-Benzyl 7-methyl 6-(4-chlorobenzenesulfonyl)-4,5-dioxo-3H,4H,5H,6H-pyrrolo[3,2-e]indole-1,7-dicarboxylate], the “tumor cell surface Fas expression (MFI)” value [1] is reported as “up-regulated tumor cell surface Fas expression”, the “H3K9me3 at the FAS promoter region” value [2] is reported as “inhibits H3K9me3 at the FAS promoter region” and the “expression levels of granzymeB, perforin, FasL and IFNγ in tumor-infiltrating CTLs (qPCR)” value [3] is reported as “significantly increased”. The “H3K9me3 levels in the promoter regions of GZMB, PRF1, FASLG and IFNG in tumor-infiltrating CTLs” value ([3]; ChIP) was “decreased H3K9me3 levels”, the “H3K9me3 levels in the promoter regions of GZMB, PRF1, FASLG and IFNG” value ([4]; F5446 50 nM, 2 days, ChIP) was “reduced H3K9me3 levels” and the “expression of GZMB, PRF1, FASLG and IFNG” value ([4]; increasing doses of F5446) was “increased expression of all four effector genes in a dose-dependent manner”. The “established tumor growth over time (tumor volume)” value [5, 11] was “suppressed the established tumor growth in a time-dependent manner”, the “tumor growth as measured by tumor size and tumor weight” value [5, 11] was “significantly reduced tumor growth” and the “expression levels of granzymeB, perforin, FasL and IFNγ in tumor tissues (qPCR)” value ([5]; tumor tissues of C57BL/6 and BALB/c mice) was “significantly increased”. For the same molecule, the “sensitivity to FasL-induced apoptosis” value (SW620 and LS411N cells [6]) was “significantly increased human colon carcinoma cells to FasL-induced apoptosis”, the EC50 [7] was 496 nM and the survival rate ([8]; mice, 10 mg/kg body weight every 2 days for 6 days) was 100%. For the same molecule, the “liver enzyme profile, overall finding” value ([8]; mice, 10 mg/kg every 2 days for 6 days) was “did not cause toxic levels of liver enzymes in vivo”, the ALP [8, 12] was 60.3 U/L and the ALT [8, 12] was 71.3 U/L. The AST [8, 12] was 444.3 U/L, the Albumin [8, 12] was 3.3 g/dL and the Cholesterol [8, 12] was 119 mg/dL. The GGT [8, 12] was <3 U/L, the “Total Bilirubin” value [8, 12] was 0.1 mg/dL and the Total protein [8, 12] was 5.7 g/dL. The apoptotic cell death (SW620 and LS411N cells [9]) was “induced human colon carcinoma cell death in a dose-dependent manner”.
In the case of O=P1(N(CCCl)CCCl)NCCCO1 (stereo not shown) [CTX, Cyclophosphamide], the cure rate (AB1-HA tumor model) is given as 75%.
In the case of CN1C(=O)[C@]23SS[C@@]1(C)C(=O)N2[C@H]1Nc2ccccc2[C@@]1([C@@]12c4ccccc4N[C@@H]1N1C(=O)[C@@]4(C)SS[C@]1(C(=O)N4C)[C@H]2O)[C@@H]3O [verticillin A], the toxicity in vivo [10] is listed as “toxic in vivo”.
For CN1C(=O)[C@@]23C[C@]4([C@]56C[C@@]78SS[C@@](CO)(C(=O)N7[C@H]5Nc5ccccc56)N(C)C8=O)c5ccccc5N[C@@H]4N2C(=O)[C@]1(CO)SS3 [chaetocin], the toxicity in vivo [10] is listed as “toxic in vivo”.
